Assay results taken from PMC8592419 (PLoS ONE, 2021).
In brackets after ≈: the same amount, converted by molar mass. Read-outs that look alike come from different tables or passages of the source.

Assays:
Test in all cases: In vitro susceptibility testing (DST), CLSI broth microdilution
Type in all cases: cell-based, M. abscessus subsp. abscessus
Set-up in all cases: key to DST profile, interpretation, Day 3 / DST profile, interpretation, Day 5 / DST profile, interpretation, Day 14: S, susceptible; I, intermediate; R, resistant
Conditions in all cases: for MIC: Mycobacteroides abscessus
[1] = system: M. abscessus clinical isolate MAB09
Method: (§1) Drug susceptibility testing (DST) was performed according to the Clinical and Laboratory Standards Institute (CLSI) guidelines M24-A2 [42] using the broth microdilution method to determine the minimum inhibitory concentration (MIC). […] Colonies were grown at an adjusted cell density to a 0.5 McFarland standard and further diluted to 5×10^5 CFU/ml. […] These were then incubated at 37°C for 3, 5 and 14 days. The MIC was defined as the concentration in which no visible growth was observed. The results were interpreted according to the guidelines of CLSI. Inducible resistance was inferred by changes in MIC values from being susceptible at day 3 to resistant at day 14.

[2] = system: M. abscessus clinical isolate MAB03
Method: as §1

[3] = system: M. abscessus clinical isolate MAB01
Method: as §1

[4] = system: M. abscessus clinical isolate MAB11
Method: as §1

[5] = system: M. abscessus clinical isolate MAB08
Method: as §1

[6] = system: M. abscessus clinical isolate MAB02
Method: as §1

[7] = system: M. abscessus clinical isolate MAB05
Method: as §1

[8] = system: M. abscessus clinical isolate MAB04
Method: as §1

[9] = system: M. abscessus clinical isolate MAB06
Method: as §1

[10] = system: M. abscessus clinical isolate MAB10
Method: as §1

[11] = system: M. abscessus clinical isolate MAB07
Method: as §1

[12] = 72 h, day 3, read-out: DST profile, MIC value, Day 3
[13] = 120 h, day 5, read-out: DST profile, MIC value, Day 5
[14] = 336 h, day 14, read-out: DST profile, MIC value, Day 14

## CC[C@H]1OC(=O)[C@H](C)[C@@H](O[C@H]2C[C@@](C)(OC)[C@@H](O)[C@H](C)O2)[C@H](C)[C@@H](O[C@@H]2O[C@H](C)C[C@H](N(C)C)[C@H]2O)[C@](C)(OC)C[C@@H](C)C(=O)[C@H](C)[C@@H](O)[C@]1(C)O [CLA, Clarithromycin]
[1]; [12]
  MIC: 0.25 µg/mL (≈ 0.334 µM)
[1]; [13]
  MIC: 8 µg/mL (≈ 10.7 µM)
[1]; [14]
  MIC: 8 µg/mL (≈ 10.7 µM)
[1]; day 3, CLSI interpretation
  DST profile, interpretation, Day 3: S
[1]; day 5, CLSI interpretation
  DST profile, interpretation, Day 5: R
[1]; day 14, CLSI interpretation
  DST profile, interpretation, Day 14: R
[2]; [12]
  MIC: 8 µg/mL (≈ 10.7 µM)
[2]; [13]
  MIC: 8 µg/mL (≈ 10.7 µM)
[2]; [14]
  MIC: 8 µg/mL (≈ 10.7 µM)
[2]; day 3, CLSI interpretation
  DST profile, interpretation, Day 3: R
[2]; day 5, CLSI interpretation
  DST profile, interpretation, Day 5: R
[2]; day 14, CLSI interpretation
  DST profile, interpretation, Day 14: R
[3]; [12]
  MIC: 1020 µg/mL (≈ 1370 µM)
[3]; [13]
  MIC: 1020 µg/mL (≈ 1370 µM)
[3]; [14]
  MIC: 1020 µg/mL (≈ 1370 µM)
[3]; day 3, CLSI interpretation
  DST profile, interpretation, Day 3: R
[3]; day 5, CLSI interpretation
  DST profile, interpretation, Day 5: R
[3]; day 14, CLSI interpretation
  DST profile, interpretation, Day 14: R
[4]; [12]
  MIC: 0.5 µg/mL (≈ 0.668 µM)
[4]; [13]
  MIC: 16 µg/mL (≈ 21.4 µM)
[4]; day 3, CLSI interpretation
  DST profile, interpretation, Day 3: S
[4]; day 5, CLSI interpretation
  DST profile, interpretation, Day 5: R
[4]; day 14, CLSI interpretation
  DST profile, interpretation, Day 14: R
[5]; [12]
  MIC: 1 µg/mL (≈ 1.34 µM)
[5]; [13]
  MIC: 2 µg/mL (≈ 2.67 µM)
[5]; [14]
  MIC: 8 µg/mL (≈ 10.7 µM)
[5]; day 3, CLSI interpretation
  DST profile, interpretation, Day 3: S
[5]; day 5, CLSI interpretation
  DST profile, interpretation, Day 5: S
[5]; day 14, CLSI interpretation
  DST profile, interpretation, Day 14: R
[6]; [12]
  MIC: 1 µg/mL (≈ 1.34 µM)
[6]; [13]
  MIC: 8 µg/mL (≈ 10.7 µM)
[6]; [14]
  MIC: 64 µg/mL (≈ 85.6 µM)
[6]; day 3, CLSI interpretation
  DST profile, interpretation, Day 3: S
[6]; day 5, CLSI interpretation
  DST profile, interpretation, Day 5: R
[6]; day 14, CLSI interpretation
  DST profile, interpretation, Day 14: R
[7]; [12]
  MIC: 4 µg/mL (≈ 5.35 µM)
[7]; [13]
  MIC: 8 µg/mL (≈ 10.7 µM)
[7]; [14]
  MIC: 16 µg/mL (≈ 21.4 µM)
[7]; day 3, CLSI interpretation
  DST profile, interpretation, Day 3: I
[7]; day 5, CLSI interpretation
  DST profile, interpretation, Day 5: R
[7]; day 14, CLSI interpretation
  DST profile, interpretation, Day 14: R
[8]; [12]
  MIC: 2 µg/mL (≈ 2.67 µM)
[8]; [13]
  MIC: 16 µg/mL (≈ 21.4 µM)
[8]; [14]
  MIC: 64 µg/mL (≈ 85.6 µM)
[8]; day 3, CLSI interpretation
  DST profile, interpretation, Day 3: S
[8]; day 5, CLSI interpretation
  DST profile, interpretation, Day 5: R
[8]; day 14, CLSI interpretation
  DST profile, interpretation, Day 14: R
[9]; [12]
  MIC: 0.5 µg/mL (≈ 0.668 µM)
[9]; [13]
  MIC: 2 µg/mL (≈ 2.67 µM)
[9]; [14]
  MIC: 32 µg/mL (≈ 42.8 µM)
[9]; day 3, CLSI interpretation
  DST profile, interpretation, Day 3: S
[9]; day 5, CLSI interpretation
  DST profile, interpretation, Day 5: S
[9]; day 14, CLSI interpretation
  DST profile, interpretation, Day 14: R
[10]; [12]
  MIC: 1020 µg/mL (≈ 1370 µM)
[10]; [13]
  MIC: 1020 µg/mL (≈ 1370 µM)
[10]; [14]
  MIC: 1020 µg/mL (≈ 1370 µM)
[10]; day 3, CLSI interpretation
  DST profile, interpretation, Day 3: R
[10]; day 5, CLSI interpretation
  DST profile, interpretation, Day 5: R
[10]; day 14, CLSI interpretation
  DST profile, interpretation, Day 14: R
[11]; [12]
  MIC: 4 µg/mL (≈ 5.35 µM)
[11]; [13]
  MIC: 16 µg/mL (≈ 21.4 µM)
[11]; [14]
  MIC: 16 µg/mL (≈ 21.4 µM)
[11]; day 3, CLSI interpretation
  DST profile, interpretation, Day 3: I
[11]; day 5, CLSI interpretation
  DST profile, interpretation, Day 5: R
[11]; day 14, CLSI interpretation
  DST profile, interpretation, Day 14: R
